Laboratory results taken from US9868727B2, “Factor XIa inhibitors” (Merck Sharp & Dohme Corp., priority 2014, dated 2018).

Assays:
[1] = target: T1, purified Human plasma kallikrein (Homo sapiens, UniProt P03952); test: Kallikrein Assay; assay type: biochemical; settings: Plasma Kallekrein IC50; fluorogenic substrate Acetyl-K-P-R-AFC, 0.5 nM enzyme, pH 7.4; read-out: PK IC50
T1 construct: yields a heavy chain (371 amino acids) and a light chain (248 amino acids); purchased Enzyme Research Laboratories
Method: (§1) The effectiveness of a compound of the present invention as an inhibitor of Kallikrein can be determined using a relevant purified serine protease, and an appropriate synthetic substrate. The rate of hydrolysis of the chromogenic or fluorogenic substrate by the relevant serine protease was measured both in the absence and presence of compounds of the present invention. Assays were conducted at room temperature or at 37° C. […] A decrease in the rate of fluorescence change in the presence of inhibitor is indicative of enzyme inhibition. Such methods are known to one skilled in the art. The results of this assay are expressed as the inhibitory constant, K1.
Kallikrein determinations were made in 50 mM HEPES buffer at pH 7.4 containing 150 mM NaCl, 5 mM CaCl2, and 0.1% PEG 8000 (polyethylene glycol; Fisher Scientific). Determinations were made using purified Human plasma kallikrein at a final concentration of 0.5 nM (Enzyme Research Laboratories) and the synthetic substrate, Acetyl-K—P—R-AFC (Sigma # C6608) at a concentration of […].
Times required to achieve equilibration between enzyme and inhibitor were determined in control experiments. The reactions were performed under linear progress curve conditions and fluorescence increase measured at 405 Ex/510 Em nm. […] IC50 was determined by inflection point from a four parameter logistic curve fit. Ki was calculated using the Cheng Prusoff equation, Ki=IC50/(1+([S]/Km)).

[2] = target: T2, purified human Factor XIa (Homo sapiens, UniProt P03951); test: Factor XIa Assay; assay type: biochemical; settings: fluorogenic substrate Z-Gly-Pro-Arg-AFC 100 μM, 40 pM enzyme, pH 7.4, read-out: F11a IC50
T2 construct: purified human Factor XIa; purchased Sekisui Diagnostics
Method: as §1, with “Coagulation Factor XIa” for “Kallikrein”, “The results of this assay are expressed as the inhibitory constant, K1.” left out
Factor XIa determinations were made in 50 mM HEPES buffer at pH 7.4 containing 150 mM NaCl, 5 mM CaCl2, and 0.1% PEG 8000 (polyethylene glycol; JT Baker or Fisher Scientific). Determinations were made using purified human Factor XIa at a final concentration of 40 pM (Sekisui Diagnostics) and he synthetic substrate, Z-Gly-Pro-Arg-AFC, TFA salt (Sigma #C0980) at a concentration of 100 μM.
Activity assays were performed by diluting a stock solution of substrate at least tenfold to a final concentration ≦0.1 Km into a solution containing enzyme or enzyme equilibrated with inhibitor. Times required to achieve equilibration between enzyme and inhibitor were determined in control experiments. Initial velocities of product formation in the absence (VO) or presence of inhibitor (Vi) were measured. Assuming competitive inhibition, and that unity is negligible compared Km/[S], [I]/e, and [I]/e (where [S], [I], and e respectively represent the total concentrations, of substrate, inhibitor and enzyme), the equilibrium constant (Ki) for dissociation of the inhibitor from the enzyme can be obtained from the dependence of VO/Vi on [I] shown in the following equation.

T1 sequence (P03952 391-638 limits assumed): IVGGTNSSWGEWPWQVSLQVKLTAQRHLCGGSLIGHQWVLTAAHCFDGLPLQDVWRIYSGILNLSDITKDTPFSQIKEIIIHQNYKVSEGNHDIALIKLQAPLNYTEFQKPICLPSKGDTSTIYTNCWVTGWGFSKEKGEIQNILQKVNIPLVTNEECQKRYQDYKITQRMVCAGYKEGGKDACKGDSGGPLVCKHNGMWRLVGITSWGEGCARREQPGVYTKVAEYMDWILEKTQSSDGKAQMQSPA
T1 sequence (P03952 20-390 partner limits assumed): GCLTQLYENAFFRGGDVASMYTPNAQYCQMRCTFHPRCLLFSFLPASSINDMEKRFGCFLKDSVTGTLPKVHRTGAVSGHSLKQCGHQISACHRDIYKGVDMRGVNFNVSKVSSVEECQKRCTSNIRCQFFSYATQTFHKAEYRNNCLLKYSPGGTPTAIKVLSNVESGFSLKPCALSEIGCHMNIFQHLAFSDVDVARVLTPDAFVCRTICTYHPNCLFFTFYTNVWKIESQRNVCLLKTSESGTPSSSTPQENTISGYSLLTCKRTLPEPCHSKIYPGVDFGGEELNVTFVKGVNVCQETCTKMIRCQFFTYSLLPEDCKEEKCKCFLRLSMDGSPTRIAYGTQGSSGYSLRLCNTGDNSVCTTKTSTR
T2 sequence (P03951 388-625 limits assumed): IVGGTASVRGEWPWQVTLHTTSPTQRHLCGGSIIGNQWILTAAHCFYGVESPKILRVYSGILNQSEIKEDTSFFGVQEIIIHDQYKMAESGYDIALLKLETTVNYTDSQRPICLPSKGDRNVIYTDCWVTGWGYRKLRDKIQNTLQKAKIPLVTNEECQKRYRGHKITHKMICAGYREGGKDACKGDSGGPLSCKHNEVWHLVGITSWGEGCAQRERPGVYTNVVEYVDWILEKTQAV
T2 sequence (P03951 19-387 partner limits assumed): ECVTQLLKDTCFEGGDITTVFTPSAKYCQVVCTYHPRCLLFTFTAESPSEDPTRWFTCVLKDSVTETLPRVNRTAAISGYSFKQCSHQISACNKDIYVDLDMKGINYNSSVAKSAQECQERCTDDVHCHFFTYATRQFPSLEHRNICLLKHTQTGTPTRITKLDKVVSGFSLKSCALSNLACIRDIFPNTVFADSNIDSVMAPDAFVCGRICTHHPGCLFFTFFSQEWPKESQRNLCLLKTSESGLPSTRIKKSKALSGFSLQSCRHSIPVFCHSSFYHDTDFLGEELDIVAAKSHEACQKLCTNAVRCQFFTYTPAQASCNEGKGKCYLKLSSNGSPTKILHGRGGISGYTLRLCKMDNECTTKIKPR

Row | IC50 [1] [nM] | IC50 [2] [nM] | SMILES
1 | 24 | 0.5 | COC(=O)Nc1ccc(-c2[nH]c(C(CC3CC3)c3ccc(-c4cc(Cl)ccc4-n4cnnn4)c[n+]3[O-])nc2Cl)cc1 (single isomer, unassigned) [Example 79, 5-(5-chloro-2-(1H-tetrazol-1-yl)phenyl)-2-(1-(4-chloro-5-(4-((methoxycarbonyl)amino)phenyl)-1H-imidazol-2-yl)-2-cyclopropylethyl)pyridine 1-oxide]
2 | 343 | 53 | COC(=O)c1scc(-c2cnc(C(CC3CC3)c3ccc(-c4cc(Cl)ccc4-n4cnnn4)c[n+]3[O-])[nH]2)c1F (single isomer, unassigned) [Example 61, Methyl 4-[2-(1-{5-[5-chloro-2-(1H-tetrazol-1-yl)phenyl]-1-oxidopyridin-2-yl}-2-cyclopropylethyl)-1H-imidazol-5-yl]-3-fluorothiophene-2-carboxylate]
3 | 38.5 | 0.48 | COC(=O)Nc1ccc(-c2cnc(C(CC3CC3)c3ccc(-c4cc(Cl)ccc4-n4cnnn4)c[n+]3[O-])[nH]2)c(F)c1 (single isomer, unassigned) [Example 38]
4 | 193 | 6.52 | [O-][n+]1cc(-c2cc(Cl)ccc2-n2cnnn2)ccc1C(Cc1ccc(F)cc1)c1nc(-c2ccc(Cl)cc2)c[nH]1 (single isomer, unassigned) [Example 22]
5 | 241 | 11 | O=C(O)c1ccc(-c2cnc(C(CC3CC3)c3ccc(-c4cc(Cl)ccc4-n4cnnn4)c[n+]3[O-])[nH]2)cc1 (single isomer, unassigned) [Example 56]
6 | 10.3 | 11.3 | COC(=O)Nc1ccc(-c2c[nH]c(C(Cc3ccc(F)cc3)c3ccc(-c4c(C(F)F)ccc(Cl)c4F)c[n+]3[O-])n2)cc1 (racemic) [Example 13, 5-(3-Chloro-6-(difluoromethyl)-2-fluorophenyl)-2-(2-(4-fluorophenyl)-1-(4-(4-((methoxycarbonyl)amino)phenyl)-1H-imidazol-2-yl)ethyl)pyridine 1-oxide]
7 | 226 | 2.85 | N#Cc1ccc(-c2cnc(C(CC3CC3)c3ccc(-c4cc(Cl)ccc4-n4cnnn4)c[n+]3[O-])[nH]2)cc1 (single isomer, unassigned) [Example 29, 4-[2-(1-{5-[5-chloro-2-(1H-tetrazol-1-yl)phenyl]-1-oxidopyridin-2-yl}-2-cyclopropylethyl)-1H-imidazol-5-yl]benzonitrile]
8 | 80 | 0.32 | Nc1ccc(-c2cnc(C(CC3CC3)c3ccc(-c4cc(Cl)ccc4-n4cnnn4)c[n+]3[O-])[nH]2)c(Cl)n1 (single isomer, unassigned) [Example 47, 6-chloro-5-[2-(1-{5-[5-chloro-2-(1H-tetrazol-1-yl)phenyl]-1-oxidopyridin-2-yl}-2-cyclopropylethyl)-1H-imidazol-5-yl]pyridin-2-amine]
9 | 469 | 10.2 | O=C(O)c1ccc(-c2cnc(C(Cc3ccccc3)c3ccc(-c4cc(Cl)ccc4-n4cnnn4)c[n+]3[O-])[nH]2)cc1 (single isomer, unassigned) [Example 7]
10 | 2610 | 51.5 | COC(=O)Nc1ccc(-c2cnc(C(CC3CC3)c3ccc(-c4cc(Cl)ccc4-c4csnn4)c[n+]3[O-])[nH]2)cc1 (racemic) [Example 72]
11 | 625 | 19 | COC(=O)Nc1ccc(-c2cnc(C(CC3CC3)c3ccc(-c4cc(Cl)ccc4-n4cnnn4)c[n+]3[O-])[nH]2)c(C)c1 (single isomer, unassigned) [Example 33]
12 | 27.6 | 2.87 | [O-][n+]1cc(-c2cc(Cl)ccc2-n2cnnn2)ccc1C(Cc1ccccc1)c1nc(-c2cccc(F)c2)c[nH]1 (single isomer, unassigned) [Example 3]
13 | 58 | 1.5 | O=C(O)c1scc(-c2cnc(C(CC3CC3)c3ccc(-c4cc(Cl)ccc4-n4cnnn4)c[n+]3[O-])[nH]2)c1F (single isomer, unassigned) [Example 57, 2-(1-(5-(5-carboxy-4-fluorothiophen-3-yl)-1H-imidazol-2-yl)-2-cyclopropylethyl)-5-(5-chloro-2-(1H-tetrazol-1-yl)phenyl)pyridine 1-oxide]
14 | 26 | 0.67 | O=C(O)c1ccc(-c2cnc(C(Cc3ccccc3)c3ccc(-c4cc(Cl)ccc4-n4cnnn4)c[n+]3[O-])[nH]2)cc1 (single isomer, unassigned) [Example 8]
15 | 399 | 23.7 | COC(=O)Nc1ccc(-c2cnc(C(CC3CC3)c3ccc(-c4cc(Cl)ccc4-n4cnnn4)c[n+]3[O-])[nH]2)c(Cl)c1 (single isomer, unassigned) [Example 41]
16 | 624 | 38.9 | [O-][n+]1cc(-c2cc(Cl)ccc2-n2cnnn2)ccc1C(Cc1ccccc1)c1nc(-c2cccc(F)c2)c[nH]1 (single isomer, unassigned) [Example 4]
17 | 228 | 1.08 | Nc1ccc(-c2c[nH]c(C(CC3CC3)c3ccc(-c4cc(Cl)ccc4-n4cnnn4)c[n+]3[O-])n2)cn1 (single isomer, unassigned) [Example 50]
18 | 802 | 36.8 | COC(=O)Nc1ccc(-c2[nH]c(C(CC3CC3)c3ccc(-c4cc(Cl)ccc4-n4cnnn4)c[n+]3[O-])nc2C)cc1 (single isomer, unassigned) [Example 76, methyl {4-[2-(1-{5-[5-chloro-2-(1H-tetrazol-1-yl)phenyl]-1-oxidopyridin-2-yl}-2-cyclopropylethyl)-4-methyl-1H-imidazol-5-yl]phenyl}carbamate]
19 | 208 | 6.51 | COC(=O)Nc1ccc(-c2cnc(C(CC3CC3)c3ccc(-c4cc(Cl)ccc4-n4cc(Cl)nn4)c[n+]3[O-])[nH]2)cc1 (racemic) [Example 67]
20 | 28.8 | 1.54 | N#Cc1ccc(-c2c[nH]c(C(Cc3ccc(F)cc3)c3ccc(-c4cc(Cl)ccc4-n4cnnn4)c[n+]3[O-])n2)cc1 (single isomer, unassigned) [Example 20]
21 | 1.52 | 1.34 | COC(=O)Nc1ccc(-c2nc([C@H](Cc3ccccc3)c3ccc(-c4cc(Cl)ccc4-n4cnnn4)c[n+]3[O-])[nH]c2Cl)cc1 [Example 1, (R) 5-(5-Chloro-2-(1H-tetrazol-1-yl)phenyl)-2-(1-(5-chloro-4-(4-((methoxycarbonyl)amino)phenyl)-1H-imidazol-2-yl)-2-phenylethyl)pyridine 1-oxide]
22 | 887 | 48.2 | COC(=O)Nc1ccc(-c2cnc(C(CC3(C)CC3)c3ccc(-c4cc(Cl)ccc4-n4cnnn4)c[n+]3[O-])[nH]2)cc1 (single isomer, unassigned) [Example 43]
23 | 1050 | 11.8 | O=C(O)c1scc(-c2cnc(C(CC3CC3)c3ccc(-c4cc(Cl)ccc4-n4cnnn4)c[n+]3[O-])[nH]2)c1F (single isomer, unassigned) [Example 58, 2-(1-(5-(5-carboxy-4-fluorothiophen-3-yl)-1H-imidazol-2-yl)-2-cyclopropylethyl)-5-(5-chloro-2-(1H-tetrazol-1-yl)phenyl)pyridine 1-oxide]
